# Measurements taken from ChEMBL document CHEMBL4304806, “Triazolo-azepine Inhibitors of γ-Secretase and Their Methods of Use” (ACS Med Chem Lett, 2019).
# Target: Gamma-secretase
# Assay: Inhibition of gamma secretase in human H4 cells over expressing human APP695 harboring K595N/M596L Swedish double mutant assessed as reduction in Abeta42 production level after 24 hrs by Alphalisa assay
# Assay type: cell-based
row,Structure (SMILES),IC50 [nM]
1,Cc1cn(C23CC(Nc4nc5n(n4)CCCC[C@@H]5c4cc(F)cc(Cl)c4)(C2)C3)cn1,8
2,Cc1cn(C23CCC(Nc4nc5n(n4)CCCC[C@H]5c4ccc(F)c(F)c4)(CC2)CC3)cn1,49
3,Cc1cn(C23CCC(Nc4nc5n(n4)CCCC[C@@H]5c4cc(F)cc(Cl)c4)(CC2)CC3)cn1,15
4,Cc1cn(C23CC(Nc4nc5n(n4)CCCC[C@H]5c4cccc(Cl)c4)(C2)C3)cn1,16
5,Cc1cn(C23CC(Nc4nc5n(n4)CCCC[C@@H]5c4ccc(F)cc4)(C2)C3)cn1,25
6,Cc1cn(C23CCC(Nc4nc5n(n4)CCCC[C@H]5c4cc(F)cc(Cl)c4)(CC2)CC3)cn1,14
7,Cc1cn(C23CC(Nc4nc5n(n4)CCCC[C@H]5c4cc(F)cc(Cl)c4)(C2)C3)cn1,14
8,Cc1cn(C23CCC(Nc4nc5n(n4)CCCC[C@@H]5c4ccc(F)c(F)c4)(CC2)CC3)cn1,39

# Further compounds by falling IC50, results first:
row,IC50 [nM],Structure (SMILES)
1,44,Cc1cn(C23CC(Nc4nc5n(n4)CCCC[C@@H]5c4ccc(F)c(F)c4)(C2)C3)cn1
2,31,Cc1cn(C23CC(Nc4nc5n(n4)CCCC[C@H]5c4ccc(F)cc4)(C2)C3)cn1
3,27,Cc1cn(C23CC(Nc4nc5n(n4)CCCC[C@H]5c4ccc(F)c(F)c4)(C2)C3)cn1
4,26,Cc1cn(C23CC(Nc4nc5n(n4)CCCC[C@@H]5c4ccc(Cl)cc4)(C2)C3)cn1
5,23,Cc1cn(C23CC(Nc4nc5n(n4)CCCC[C@H]5c4ccc(Cl)cc4)(C2)C3)cn1
6,15,Cc1cn(C23CC(Nc4nc5n(n4)CCCC[C@@H]5c4cccc(Cl)c4)(C2)C3)cn1
